Measured values published in PubChem BioAssay (NCI).
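48-hour exposure; five concentrations; linearly interpolated endpoints. At the TGI there is no net growth.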

Tests used:
Assay in all cases: inhibition of tumour cell growth, NCI panel, 48 h
[1] = test system: SK-MEL-5 melanoma
[2] = test system: DU-145 prostate
[3] = test system: MDA-MB-231 breast
[4] = test system: HT29 colon
[5] = test system: ACHN renal
[6] = test system: SNB-19 CNS
[7] = test system: SF-295 CNS
[8] = test system: NCI-H226 lung
[9] = test system: NCI-H23 lung
[10] = test system: KM12 colon
[11] = test system: A549 NSCLC
[12] = test system: OVCAR-8 ovarian
[13] = test system: MDA-MB-435
[14] = test system: RXF 393 renal
[15] = test system: LOX IMVI melanoma
[16] = test system: OVCAR-5 ovarian
[17] = test system: NCI-H522 lung
[18] = test system: SF-268 CNS
[19] = test system: EKVX NSCLC
[20] = test system: UACC-62 melanoma
[21] = test system: HCT-116 colon
[22] = test system: MOLT-4 leukemia
[23] = test system: OVCAR-4 ovarian
[24] = test system: NCI-H460 lung
[25] = test system: COLO 205 colon
[26] = test system: T-47D breast
[27] = test system: PC-3 prostate
[28] = test system: SN12C renal
[29] = test system: HCC-2998 colon
[30] = test system: CCRF-CEM leukemia
[31] = test system: UACC-257 melanoma
[32] = test system: HOP-62 NSCLC
[33] = test system: TK-10 renal
[34] = test system: IGROV1 ovarian
[35] = test system: SF-539 CNS
[36] = test system: U251 CNS
[37] = test system: 786-0 renal
[38] = test system: SW-620 colon
[39] = test system: MDA-N
[40] = test system: SK-MEL-2 melanoma
[41] = test system: HS 578T breast
[42] = test system: BT-549 breast
[43] = test system: HCT-15 colon
[44] = test system: HL-60(TB) leukemia
[45] = test system: MCF7 breast
[46] = test system: OVCAR-3 ovarian
[47] = test system: SNB-75 CNS
[48] = test system: A498 renal
[49] = test system: CAKI-1 renal
[50] = test system: M14 melanoma
[51] = test system: SK-MEL-28 melanoma
[52] = test system: SK-OV-3 ovarian
[53] = test system: HOP-92 NSCLC
[54] = test system: SR leukemia
[55] = test system: RPMI-8226 leukemia
[56] = test system: NCI/ADR-RES ovarian
[57] = test system: K-562 leukemia
[58] = test system: MALME-3M melanoma
[59] = test system: UO-31 renal

## c1ccc2nc3cc4c(cc3nc2c1)NC12CCCCC1CC1=C(CCCC1)N42 (stereo not drawn)
[1]
  TGI: 5.16 µM
[2]
  TGI: > 10 µM
[3]
  TGI: > 10 µM
[4]
  TGI: > 10 µM
[5]
  TGI: > 10 µM
[6]
  TGI: > 10 µM
[7]
  TGI: > 10 µM
[8]
  TGI: 6.57 µM
[9]
  TGI: > 10 µM
[10]
  TGI: 8.14 µM
[11]
  TGI: > 10 µM
[12]
  TGI: > 10 µM
[13]
  TGI: 3.9 µM
[14]
  TGI: 6.3 µM
[15]
  TGI: > 10 µM
[16]
  TGI: > 10 µM
[17]
  TGI: 8.37 µM
[18]
  TGI: > 10 µM
[19]
  TGI: > 10 µM
[20]
  TGI: 9.63 µM
[21]
  TGI: > 10 µM
[22]
  TGI: 5.25 µM
[23]
  TGI: 6.96 µM
[24]
  TGI: > 10 µM
[25]
  TGI: 3.6 µM
[26]
  TGI: > 10 µM
[27]
  TGI: 6.64 µM
[28]
  TGI: 6.48 µM
[29]
  TGI: > 10 µM
[30]
  TGI: 4.9 µM
[31]
  TGI: 7.03 µM
[32]
  TGI: > 10 µM
[33]
  TGI: > 10 µM
[34]
  TGI: > 10 µM
[35]
  TGI: 7.7 µM
[36]
  TGI: > 10 µM
[37]
  TGI: > 10 µM
[38]
  TGI: > 10 µM
[39]
  TGI: 7.06 µM
[40]
  TGI: 9.53 µM
[41]
  TGI: 8.04 µM
[42]
  TGI: 4.72 µM
[43]
  TGI: > 10 µM
[44]
  TGI: 8.31 µM
[45]
  TGI: > 10 µM
[46]
  TGI: 5.03 µM
[47]
  TGI: 7.06 µM
[48]
  TGI: > 10 µM
[49]
  TGI: > 10 µM
[50]
  TGI: 6.35 µM
[51]
  TGI: > 10 µM
[52]
  TGI: > 10 µM
[53]
  TGI: > 10 µM
[54]
  TGI: 1.51 µM
[55]
  TGI: 5.52 µM
[56]
  TGI: > 10 µM
[57]
  TGI: 5.5 µM
[58]
  TGI: 5.33 µM

## Cc1cc(-c2nc3cc(F)ccc3s2)ccc1NC(=O)C(C)N (stereo not drawn)
[1]
  TGI: 13.6 µM
[2]
  TGI: 8.17 µM
[3]
  TGI: 7.7 µM
[4]
  TGI: 8.04 µM
[5]
  TGI: 7.83 µM
[6]
  TGI: 9.63 µM
[7]
  TGI: 7.94 µM
[8]
  TGI: > 25 µM
[9]
  TGI: 6.24 µM
[10]
  TGI: 9.36 µM
[11]
  TGI: 7.72 µM
[12]
  TGI: 8.62 µM
[13]
  TGI: 10.5 µM
[14]
  TGI: 8.33 µM
[15]
  TGI: 10.1 µM
[16]
  TGI: 5.52 µM
[17]
  TGI: 7.99 µM
[18]
  TGI: 9.5 µM
[19]
  TGI: 7.03 µM
[20]
  TGI: 7.7 µM
[21]
  TGI: 6.57 µM
[22]
  TGI: 8.42 µM
[23]
  TGI: 8.18 µM
[24]
  TGI: 5.98 µM
[25]
  TGI: 13.6 µM
[26]
  TGI: 6.35 µM
[27]
  TGI: 8.71 µM
[28]
  TGI: 9.49 µM
[29]
  TGI: 3.57 µM
[30]
  TGI: 3.25 µM
[31]
  TGI: 8.88 µM
[32]
  TGI: 8.32 µM
[33]
  TGI: 2.93 µM
[34]
  TGI: 4.76 µM
[35]
  TGI: 14.2 µM
[36]
  TGI: 9.42 µM
[37]
  TGI: 7.2 µM
[38]
  TGI: 9.77 µM
[39]
  TGI: 8.13 µM
[40]
  TGI: 7.87 µM
[41]
  TGI: 10 µM
[42]
  TGI: 8.49 µM
[59]
  TGI: 7.05 µM
[43]
  TGI: 6.67 µM
[44]
  TGI: 1.34 µM
[45]
  TGI: 2.7 µM
[46]
  TGI: 7.32 µM
[47]
  TGI: 10.6 µM
[48]
  TGI: 7.41 µM
[49]
  TGI: 8.64 µM
[50]
  TGI: 9.74 µM
[51]
  TGI: 11 µM
[52]
  TGI: 8.84 µM
[53]
  TGI: 9.41 µM
[54]
  TGI: 5.24 µM
[55]
  TGI: 16.9 µM
[56]
  TGI: 10.2 µM
[57]
  TGI: 14.5 µM
[58]
  TGI: 25 µM

## COc1cc(NCc2ccc3n2-c2ccccc2OC3)cc(OC)c1OC
[1]
  TGI: 32.3 µM
[2]
  TGI: > 100 µM
[3]
  TGI: 34.1 µM
[4]
  TGI: > 100 µM
[5]
  TGI: > 100 µM
[6]
  TGI: > 100 µM
[7]
  TGI: 63.9 µM
[8]
  TGI: > 100 µM
[9]
  TGI: > 100 µM
[10]
  TGI: > 100 µM
[11]
  TGI: > 100 µM
[12]
  TGI: > 100 µM
[13]
  TGI: 33.8 µM
[14]
  TGI: 87.5 µM
[15]
  TGI: 27.4 µM
[16]
  TGI: > 100 µM
[17]
  TGI: 40.7 µM
[18]
  TGI: > 100 µM
[19]
  TGI: 45.1 µM
[20]
  TGI: 43.4 µM
[21]
  TGI: > 100 µM
[23]
  TGI: 55.5 µM
[24]
  TGI: > 100 µM
[25]
  TGI: 25.5 µM
[26]
  TGI: > 100 µM
[27]
  TGI: 87.1 µM
[28]
  TGI: 45.5 µM
[29]
  TGI: 51.6 µM
[30]
  TGI: 44.3 µM
[31]
  TGI: 64.1 µM
[32]
  TGI: > 100 µM
[33]
  TGI: > 100 µM
[34]
  TGI: 70.5 µM
[36]
  TGI: > 100 µM
[37]
  TGI: > 100 µM
[38]
  TGI: > 100 µM
[39]
  TGI: 72.4 µM
[40]
  TGI: 69.2 µM
[41]
  TGI: > 100 µM
[42]
  TGI: 67.3 µM
[59]
  TGI: 60 µM
[43]
  TGI: > 100 µM
[44]
  TGI: 57.2 µM
[45]
  TGI: 40.6 µM
[46]
  TGI: 75.5 µM
[47]
  TGI: 62.4 µM
[48]
  TGI: 33.8 µM
[49]
  TGI: 74.5 µM
[50]
  TGI: > 100 µM
[51]
  TGI: > 100 µM
[53]
  TGI: 51.3 µM
[54]
  TGI: 35.6 µM
[55]
  TGI: 26.9 µM
[56]
  TGI: 22.5 µM
[57]
  TGI: 27.6 µM
[58]
  TGI: 50.9 µM
